For data set [1], the target named is T1, serotoninergic 5-HT6 receptor (Homo sapiens, UniProt P50406). The data set is described as follows: Binding assay 5-HT6 (h), [3H]LSD, CHO cells. Set-up: expressed in transfected cells; host or cells: CHO cells. The note with it: read-out: 5-HT6. The procedure, abridged:
(§1)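 Compounds were screened at 1×10^−6 M, and bound radioactivity was measured by scintillation counting. Specific binding equals total binding minus nonspecific binding obtained with an excess of unlabelled ligand.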

The target in data set [2] is T2, serotoninergic 5-HT7 receptor (Homo sapiens, UniProt P34969). Nature of the data set: Binding assay 5-HT7 (h), [3H]LSD, CHO cells. More on the design: expressed in transfected cells; host or cells: CHO cells. Conditions: read-out: 5-HT7. The procedure, abridged: as §1
T2 sequence (P34969 whole entry): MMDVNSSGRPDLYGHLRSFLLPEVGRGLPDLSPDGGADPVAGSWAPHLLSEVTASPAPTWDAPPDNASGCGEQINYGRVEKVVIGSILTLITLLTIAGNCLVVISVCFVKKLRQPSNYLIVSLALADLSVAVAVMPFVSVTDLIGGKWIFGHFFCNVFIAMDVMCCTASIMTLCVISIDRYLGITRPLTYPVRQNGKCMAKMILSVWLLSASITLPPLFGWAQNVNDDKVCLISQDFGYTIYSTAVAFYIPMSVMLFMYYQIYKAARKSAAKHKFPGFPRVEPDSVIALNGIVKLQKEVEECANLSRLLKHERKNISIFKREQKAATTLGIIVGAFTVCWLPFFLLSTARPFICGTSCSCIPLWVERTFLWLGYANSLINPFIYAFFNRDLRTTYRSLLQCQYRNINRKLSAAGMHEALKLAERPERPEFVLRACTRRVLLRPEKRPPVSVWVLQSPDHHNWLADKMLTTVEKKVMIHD
Another data set deals with T3, muscarinic M3 receptor (Homo sapiens, UniProt P20309).
T3 construct: expressed in transfected cells; host or cells: CHO cells
Nature of the data set: Binding assay M3 (h), [3H]4-DAMP, CHO cells. Conditions: read-out: M3 [%]. The procedure, abridged: as §1

For data set [3], the target named is T4, serotoninergic receptor 5-HT2C (Homo sapiens, UniProt P28335).
T4 construct: expressed in transfected cells; host or cells: HEK-293 cells
T4 sequence (P28335 33-458): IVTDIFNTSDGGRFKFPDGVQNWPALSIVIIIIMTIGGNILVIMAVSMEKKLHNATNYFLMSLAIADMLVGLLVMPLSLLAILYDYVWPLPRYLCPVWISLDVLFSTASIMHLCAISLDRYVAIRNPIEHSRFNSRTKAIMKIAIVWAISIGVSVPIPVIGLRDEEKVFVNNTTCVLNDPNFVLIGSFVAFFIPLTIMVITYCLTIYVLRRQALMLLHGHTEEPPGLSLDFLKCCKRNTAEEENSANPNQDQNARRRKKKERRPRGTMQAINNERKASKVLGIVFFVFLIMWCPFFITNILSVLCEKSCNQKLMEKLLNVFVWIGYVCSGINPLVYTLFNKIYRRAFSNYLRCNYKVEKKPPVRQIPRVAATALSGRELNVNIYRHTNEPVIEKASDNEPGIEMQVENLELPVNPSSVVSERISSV
Nature of the data set: Binding assay 5-HT2C (h), [3H]mesulergine, HEK-293 cells. Conditions: read-out: 5-HT2C [%]. The procedure, abridged: as §1

Data set [4] concerns the target histaminergic H1 receptor (Homo sapiens, UniProt P35367). Nature of the data set: Binding assay H1 (h), [3H]pyrilamine, HEK-293 cells. Set-up: expressed in transfected cells; host or cells: HEK-293 cells. The note with it: read-out: H1 [%]. The procedure, abridged:
as §1

The next data set addresses dopaminergic D3 receptor (Homo sapiens, UniProt P35462). The data set is described as follows: Binding assay D3 (h), [3H]methyl-spiperone, CHO cells. Set-up: expressed in transfected cells; host or cells: CHO cells. The note with it: read-out: D3 [%]. The procedure, abridged:
as §1

Data set [5] concerns the target T1, serotoninergic 5-HT6 receptor. The data set is described as follows: Cellular functional assay, serotoninergic 5-HT6 receptor (agonism/antagonism). The class given is cell-based. The note with it: for inhibition at 1 µM: read-out: 5-HT6-antag. [%]. As for the experimental part:
(§2) The compounds were tested at the concentration of 1×10^−6M.
(§3) In the Tables ag refers to agonism, and antag to antagonism).

In data set [6] the target is T5, serotoninergic 5-HT1A receptor (Homo sapiens, UniProt P08908).
T5 sequence (P08908 1-422): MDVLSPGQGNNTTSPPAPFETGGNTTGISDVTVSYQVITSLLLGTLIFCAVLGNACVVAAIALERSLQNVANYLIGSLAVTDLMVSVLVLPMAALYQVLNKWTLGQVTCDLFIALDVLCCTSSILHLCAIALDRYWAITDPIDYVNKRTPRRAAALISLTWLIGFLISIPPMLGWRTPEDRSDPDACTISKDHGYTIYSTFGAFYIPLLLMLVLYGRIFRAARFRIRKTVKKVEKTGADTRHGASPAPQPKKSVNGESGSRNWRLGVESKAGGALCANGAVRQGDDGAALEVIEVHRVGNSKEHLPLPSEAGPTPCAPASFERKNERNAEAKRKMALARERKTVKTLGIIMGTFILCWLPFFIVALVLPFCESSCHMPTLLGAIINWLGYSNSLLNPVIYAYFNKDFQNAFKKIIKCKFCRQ
Nature of the data set: Binding assay 5-HT1A (h), [3H]8-OH-DPAT, HEK-293 cells. More on the design: expressed in transfected cells; host or cells: HEK-293 cells. Conditions: read-out: 5-HT1A. In outline:
as §1

The target of data set [7] is T6, serotonine transporter (SERT) receptor (Homo sapiens, UniProt P31645).
T6 construct: expressed in transfected cells; host or cells: CHO cells
T6 sequence (P31645 whole entry): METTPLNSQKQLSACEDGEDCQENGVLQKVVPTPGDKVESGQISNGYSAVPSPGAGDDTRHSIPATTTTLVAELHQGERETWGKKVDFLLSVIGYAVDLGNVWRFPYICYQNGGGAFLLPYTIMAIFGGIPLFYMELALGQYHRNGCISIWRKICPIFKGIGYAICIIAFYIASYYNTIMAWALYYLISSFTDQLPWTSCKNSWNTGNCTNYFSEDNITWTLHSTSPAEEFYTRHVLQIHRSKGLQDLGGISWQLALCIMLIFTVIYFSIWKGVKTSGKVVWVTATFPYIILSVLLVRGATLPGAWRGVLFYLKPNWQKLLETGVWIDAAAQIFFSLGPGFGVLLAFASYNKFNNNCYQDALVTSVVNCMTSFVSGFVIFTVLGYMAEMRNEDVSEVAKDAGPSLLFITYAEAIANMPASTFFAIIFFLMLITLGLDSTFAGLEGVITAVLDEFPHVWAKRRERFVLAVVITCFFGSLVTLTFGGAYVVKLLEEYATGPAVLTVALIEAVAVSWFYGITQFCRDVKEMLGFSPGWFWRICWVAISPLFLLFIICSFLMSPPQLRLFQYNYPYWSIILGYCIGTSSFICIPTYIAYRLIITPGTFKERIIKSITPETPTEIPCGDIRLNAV
The data set is described as follows: Binding assay SERT (h), [3H]imipramine, CHO cells. Conditions: read-out: SERT [%]. The procedure, abridged:
as §1

In another data set the target is dopaminergic D2 receptor (Homo sapiens, UniProt P14416). Nature of the data set: Binding assay D2S (h), [3H]methyl-spiperone, HEK-293 cells. More on the design: expressed in transfected cells; host or cells: HEK-293 cells. The note with it: read-out: D2 [%]. In outline:
as §1

The target in data set [8] is T7, hERG potassium channels (Homo sapiens, UniProt Q12809). Nature of the data set: hERG potassium channel block, electrophysiology (IonWorks Quattro), CHO cells. Conditions: % block of hERG current, cloned hERG channels in CHO cells, IonWorks Quattro. On the technique in general: The hERG channel carries a current that helps repolarise heart muscle cells.
T7 sequence (Q12809 whole entry): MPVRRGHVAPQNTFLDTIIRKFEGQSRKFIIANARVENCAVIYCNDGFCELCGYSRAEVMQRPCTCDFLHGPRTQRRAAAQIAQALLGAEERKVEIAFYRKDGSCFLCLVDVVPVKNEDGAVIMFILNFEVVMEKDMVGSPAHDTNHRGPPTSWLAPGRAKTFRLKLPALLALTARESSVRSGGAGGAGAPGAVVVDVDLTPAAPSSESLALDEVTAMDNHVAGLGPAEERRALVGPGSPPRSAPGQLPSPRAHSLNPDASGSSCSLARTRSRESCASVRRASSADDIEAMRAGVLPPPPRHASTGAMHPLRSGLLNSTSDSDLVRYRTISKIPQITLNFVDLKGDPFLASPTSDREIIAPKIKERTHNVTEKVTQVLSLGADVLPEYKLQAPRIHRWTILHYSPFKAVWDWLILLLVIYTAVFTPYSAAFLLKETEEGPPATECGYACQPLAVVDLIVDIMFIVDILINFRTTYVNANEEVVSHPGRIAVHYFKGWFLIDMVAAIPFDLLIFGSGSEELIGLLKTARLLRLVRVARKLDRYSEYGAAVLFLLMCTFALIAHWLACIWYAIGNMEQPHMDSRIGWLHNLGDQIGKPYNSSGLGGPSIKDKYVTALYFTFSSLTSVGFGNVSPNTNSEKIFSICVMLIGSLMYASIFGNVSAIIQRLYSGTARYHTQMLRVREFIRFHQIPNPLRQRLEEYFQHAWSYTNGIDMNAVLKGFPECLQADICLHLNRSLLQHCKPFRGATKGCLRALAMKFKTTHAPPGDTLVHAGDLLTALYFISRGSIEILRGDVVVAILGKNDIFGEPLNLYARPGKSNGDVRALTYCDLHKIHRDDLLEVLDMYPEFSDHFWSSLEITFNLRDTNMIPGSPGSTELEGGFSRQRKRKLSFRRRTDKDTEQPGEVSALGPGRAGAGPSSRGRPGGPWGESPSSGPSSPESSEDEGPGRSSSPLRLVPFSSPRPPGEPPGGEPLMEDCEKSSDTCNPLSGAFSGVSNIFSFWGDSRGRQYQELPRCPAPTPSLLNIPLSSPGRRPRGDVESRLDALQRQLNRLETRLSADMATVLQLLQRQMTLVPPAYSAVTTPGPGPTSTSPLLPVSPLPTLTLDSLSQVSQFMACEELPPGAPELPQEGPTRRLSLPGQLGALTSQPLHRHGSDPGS
Protocol: (§4) Ability to block hERG potassium channels was determined using the electrophysiological method and cloned hERG potassium channels (KCNH2 gene, expressed in CHO cells) as biological material. The effects were evaluated using IonWorks™ Quattro system (MDS-AT).
(§5) hERG current was elicited using a pulse pattern with fixed amplitudes (conditioning prepulse: −80 mV for 25 ms; test pulse: +40 mV for 80 ms) from a holding potential of 0 mV. hERG current was measured as a difference between the peak current at 1 ms after the test step to +40 mV and the steady-state current at the end of the step to +40 mV.
(§6) Data acquisition and analyses was performed using the IonWorks Quattro™ system operation software (version 2.0.2; Molecular Devices Corporation, Union City, Calif.). Data were corrected for leak current.
Data set [9] addresses serotoninergic 5-HT2A receptor (Homo sapiens, UniProt P28223). The data set is described as follows: Binding assay 5-HT2A (h), [3H]ketanserin, HEK-293 cells. The note with it: read-out: 5-HT2A. More on the design: expressed in transfected cells; host or cells: HEK-293 cells. The procedure, abridged:
as §1

Data set [10] deals with T2, serotoninergic 5-HT7 receptor. Nature of the data set: Cellular functional assay, serotoninergic 5-HT7 receptor (agonism/antagonism). The class given is cell-based. The note with it: for inhibition at 1 µM: read-out: 5-HT7-antag. [%]; for activation at 1 µM: agonist effect, percent of control specific agonist response, compounds tested at 1×10^−6M, read-out: 5-HT7-ag [%]. As for the experimental part: as §2, §3

For the next data set, the target named is T8, adrenergic α2C receptor (Homo sapiens, UniProt P18825).
T8 sequence (P18825 1-462): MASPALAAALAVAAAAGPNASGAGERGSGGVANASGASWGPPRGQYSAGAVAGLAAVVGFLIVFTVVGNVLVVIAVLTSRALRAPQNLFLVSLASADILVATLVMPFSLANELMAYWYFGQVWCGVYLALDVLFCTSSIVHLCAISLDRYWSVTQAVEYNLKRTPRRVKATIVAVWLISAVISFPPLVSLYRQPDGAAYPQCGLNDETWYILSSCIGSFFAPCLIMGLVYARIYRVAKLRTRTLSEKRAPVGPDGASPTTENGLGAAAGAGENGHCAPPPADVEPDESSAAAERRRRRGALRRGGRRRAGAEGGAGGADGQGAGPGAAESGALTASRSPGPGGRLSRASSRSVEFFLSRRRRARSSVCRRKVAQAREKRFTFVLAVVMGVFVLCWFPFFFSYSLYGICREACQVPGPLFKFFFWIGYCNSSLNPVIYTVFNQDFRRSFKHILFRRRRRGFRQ
The data set is described as follows: Binding assay α2C (h), [3H]RX 821002, CHO cells. Set-up: expressed in transfected cells; host or cells: CHO cells. The note with it: read-out: α2C [%]. In outline:
as §1

The next data set deals with adrenergic α1 receptor. The data set is described as follows: Binding assay α1 (non-selective), [3H]prazosin, rat cerebral cortex. Conditions: percent inhibition of control specific binding; compounds tested at 1×10^−6 M. The procedure, abridged:
as §1

For another data set, the system named is sigma σ receptor. Nature of the data set: Binding assay σ (non-selective), [3H]DTG, rat cerebral cortex. Conditions: percent inhibition of control specific binding; compounds tested at 1×10^−6 M. In outline: as §1
The target in data set [11] is T7, hERG potassium channels.
Protocol: as §4, §5, §6

Like-named read-outs stand apart in the source and are kept apart here.

dopaminergic D2 receptor, sequence (P14416 1-414 isoform P14416-2): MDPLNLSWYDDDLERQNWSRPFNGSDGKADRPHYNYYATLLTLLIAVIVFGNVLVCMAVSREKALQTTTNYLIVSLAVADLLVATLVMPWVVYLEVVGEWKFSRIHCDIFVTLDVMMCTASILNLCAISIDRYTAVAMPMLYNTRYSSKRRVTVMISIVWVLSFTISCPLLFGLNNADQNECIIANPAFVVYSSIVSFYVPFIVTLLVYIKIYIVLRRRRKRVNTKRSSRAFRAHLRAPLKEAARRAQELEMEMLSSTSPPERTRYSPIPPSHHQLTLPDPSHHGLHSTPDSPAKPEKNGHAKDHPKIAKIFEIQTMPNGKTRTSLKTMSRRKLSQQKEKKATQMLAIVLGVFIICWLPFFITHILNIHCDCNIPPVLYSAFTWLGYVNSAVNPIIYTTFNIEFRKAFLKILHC
serotoninergic 5-HT2A receptor, sequence (P28223 whole entry): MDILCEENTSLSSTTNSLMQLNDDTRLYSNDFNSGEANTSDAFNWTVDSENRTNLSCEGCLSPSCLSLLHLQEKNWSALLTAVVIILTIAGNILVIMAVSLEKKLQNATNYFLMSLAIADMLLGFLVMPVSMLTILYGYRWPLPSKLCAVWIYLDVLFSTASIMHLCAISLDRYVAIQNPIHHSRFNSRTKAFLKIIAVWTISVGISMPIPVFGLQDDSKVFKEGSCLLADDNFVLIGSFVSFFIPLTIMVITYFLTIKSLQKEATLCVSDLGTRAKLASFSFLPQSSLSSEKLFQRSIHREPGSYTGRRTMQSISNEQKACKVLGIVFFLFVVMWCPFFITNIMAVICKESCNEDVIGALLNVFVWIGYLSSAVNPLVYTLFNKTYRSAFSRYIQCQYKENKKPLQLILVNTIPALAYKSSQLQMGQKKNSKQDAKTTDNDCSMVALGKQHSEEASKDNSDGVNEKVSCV
histaminergic H1 receptor, sequence (P35367 whole entry): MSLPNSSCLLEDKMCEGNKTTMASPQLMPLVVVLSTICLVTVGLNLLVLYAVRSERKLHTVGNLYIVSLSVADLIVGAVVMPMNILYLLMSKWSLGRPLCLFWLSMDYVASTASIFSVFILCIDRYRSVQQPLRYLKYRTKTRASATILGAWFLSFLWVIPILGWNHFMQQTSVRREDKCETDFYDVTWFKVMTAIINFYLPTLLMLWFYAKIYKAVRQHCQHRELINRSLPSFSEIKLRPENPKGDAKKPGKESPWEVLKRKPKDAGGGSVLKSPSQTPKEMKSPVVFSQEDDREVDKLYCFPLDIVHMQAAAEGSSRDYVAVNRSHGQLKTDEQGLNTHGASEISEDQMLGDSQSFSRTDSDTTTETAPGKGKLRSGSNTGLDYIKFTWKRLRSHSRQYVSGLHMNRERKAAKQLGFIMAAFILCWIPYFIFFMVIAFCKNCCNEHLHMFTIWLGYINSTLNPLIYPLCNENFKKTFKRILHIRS
T1 sequence (P50406 whole entry): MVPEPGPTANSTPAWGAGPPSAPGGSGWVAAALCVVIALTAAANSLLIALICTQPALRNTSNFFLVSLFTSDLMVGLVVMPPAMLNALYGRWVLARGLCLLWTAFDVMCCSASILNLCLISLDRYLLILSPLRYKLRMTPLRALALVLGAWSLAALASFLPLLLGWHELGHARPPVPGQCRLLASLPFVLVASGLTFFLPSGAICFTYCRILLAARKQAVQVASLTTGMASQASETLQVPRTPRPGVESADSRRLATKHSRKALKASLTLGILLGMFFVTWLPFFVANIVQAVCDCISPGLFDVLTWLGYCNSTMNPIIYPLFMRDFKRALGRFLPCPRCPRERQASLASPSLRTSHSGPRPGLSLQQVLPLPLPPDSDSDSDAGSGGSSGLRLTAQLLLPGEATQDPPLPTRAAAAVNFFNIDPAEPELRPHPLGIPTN
dopaminergic D3 receptor, sequence (P35462 whole entry): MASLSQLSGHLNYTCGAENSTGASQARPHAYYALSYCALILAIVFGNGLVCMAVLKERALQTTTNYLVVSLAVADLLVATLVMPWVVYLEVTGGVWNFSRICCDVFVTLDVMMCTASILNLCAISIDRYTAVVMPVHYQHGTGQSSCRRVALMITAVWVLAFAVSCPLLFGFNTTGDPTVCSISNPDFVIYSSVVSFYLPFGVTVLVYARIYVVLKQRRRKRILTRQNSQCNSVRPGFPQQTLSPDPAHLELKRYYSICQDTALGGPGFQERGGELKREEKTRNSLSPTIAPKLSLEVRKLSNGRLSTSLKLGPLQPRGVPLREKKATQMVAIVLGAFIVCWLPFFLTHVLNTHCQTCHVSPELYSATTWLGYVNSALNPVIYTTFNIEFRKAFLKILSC

On to `O=S(=O)(NCCCCN1CCC(c2noc3cc(F)ccc23)CC1)c1cccc2ccccc12` [Compound 17, N-[4-[4-(6-Fluoro-1,2-benzoxazol-3-yl)piperidin-1-yl]butyl]naphthalene-1-sulphonamide], for which the inhibition at 1 µM came out at 99% in data set [1]; 99% in data set [2]; 7% on muscarinic M3 receptor; 62% in [3]; 80% in data set [4]; 93% on dopaminergic D3 receptor. In addition, the inhibition at 1 µM in data set [5] was 69%; in [6], 84%; in [7], 44%; at dopaminergic D2 receptor, 98%; in data set [9], 100%; in [10], 95%. Further, at adrenergic α2C receptor, the inhibition at 1 µM came out at 100%. Besides, the activation at 1 µM in data set [5] (agonist effect, percent of control specific agonist response, compounds tested at 1×10^−6M, read-out: 5-HT6-ag [%]) was determined as 2%. Also, the “hERG [%]” value on hERG potassium channels [8] turned out to be 24%.

As to `O=S(=O)(NCCCN1CCN(c2nsc3ccccc23)CC1)c1ccc2ccccc2c1` [Compound 6, N-(3-(4-(1,2-Benzothiazol-3-yl)piperazin-1-yl)propyl)naphthalene-2-sulphonamide], the inhibition at 1 µM in data set [1] is 88%; in [2] it was 98%; on muscarinic M3 receptor it was -1%; in data set [3], 88%; in data set [4], 93%; on dopaminergic D3 receptor it was 97%. Also, the inhibition at 1 µM in data set [5] was 26%; in data set [6] it was 99%; in data set [7], 95%; at dopaminergic D2 receptor, 96%; in [9], 100%; in data set [10] it was 66%. Also, on adrenergic α2C receptor, the inhibition at 1 µM came to 93%. Also, the “hERG [%]” value on hERG potassium channels [8] is 13%. For the same compound, in the data set with adrenergic α1 receptor, the “α1 [%]” value is given as 95%. Further, in data set [10], the activation at 1 µM turned out to be 0%. Further, the “σ [%]” value in the data set with sigma σ receptor turned out to be 59%.

In the case of `Cc1[nH]c2ccc(Cl)cc2c1C1=CCN(CCCNS(=O)(=O)c2cccc(O)c2)CC1` [Compound 445, N-[3-[4-(5-Chloro-2-methyl-1H-indol-3-yl)-3,6-dihydro-2H-pyridin-1-yl]propyl]-3-hydroxybenzenesulphonamide], the inhibition at 1 µM turned out to be 84% in data set [1]; 98% in data set [2]; 27% on muscarinic M3 receptor; 67% in data set [3]; 60% in data set [4]; 97% at dopaminergic D3 receptor. In addition, the inhibition at 1 µM in [6] was determined as 93%; in data set [7], 68%; on dopaminergic D2 receptor, 98%; in data set [9] it was 78%; at adrenergic α2C receptor, 69%. Moreover, the “hERG [%]” value on hERG potassium channels [11] worked out at 2%. The “α1 [%]” value with adrenergic α1 receptor is listed as 50%. In addition, the “σ [%]” value in the data set on sigma σ receptor was 67%.

For the compound `O=S(=O)(NCCCN1CCN(c2nsc3ccccc23)CC1)c1cccc2ccccc12` [Compound 5, N-(3-(4-(1,2-Benzothiazol-3-yl)piperazin-1-yl)propyl)naphthalene-1-sulphonamide], the inhibition at 1 µM was found to be 84% in [1]; 98% in data set [2]; 7% at muscarinic M3 receptor; 81% in [3]; 92% in [4]; 98% on dopaminergic D3 receptor. The inhibition at 1 µM in data set [5] was found to be 18%; in data set [6], 99%; in [7], 84%; on dopaminergic D2 receptor it was 96%; in data set [9], 99%; in [10], 85%. In addition, the inhibition at 1 µM at adrenergic α2C receptor is 99%. Also, the “hERG [%]” value on hERG potassium channels [8] came out at 17%. For the same compound, in the data set on adrenergic α1 receptor, the “α1 [%]” value was found to be 98%. Besides, the activation at 1 µM in [10] is -1%. Also, the “σ [%]” value with sigma σ receptor worked out at 72%.

The record behind these values is US8822517B2, “Arylosulfonamides for the treatment of CNS diseases” (Adamed SP. Z O.O., priority 2010, dated 2014).
